Earlier results as cited in patent US20110105453A1, “Superoxide Dismutase Mimics For The Treatment Of Optic Nerve And Retinal Damage” (ALCON, INC., priority 2003, published 2011).

Experiments:
[1] = test system: light-induced retinal damage in albino rats
[2] = test system: NADH-coenzyme Q1 reductase; conditions: uncouples mitochondrial respiration
[3] = test system: cytochrome c oxidase; conditions: uncouples mitochondrial respiration
[4] = test system: tryptophan hydroxylase
[5] = test system: rat ocular ischemia-reperfusion model; conditions: intravitreal injections (SOD protein)

## CC1(C)CC(O)CC(C)(C)N1[O] [4-hydroxy-2,2,6,6-tetramethylpiperidine-1-oxyl]
[1]
  inhibition of light-induced retinal damage: inhibited light-induced retinal damage

## NCCc1c[nH]c2c1C(=O)C(=O)C=C2 [T-4,5-D, tryptamine 4,5-dione]
[2]
  inhibition of NADH-coenzyme Q1 reductase: irreversible inhibition
[3]
  inhibition of cytochrome c oxidase: irreversible inhibition
[4]
  inactivation of tryptophan hydroxylase: irreversibly inactivates

## CNC(=S)NC [dimethylthiourea]
[5]
  functional protection: 40%
